# Source: PubChem BioAssay (NCI)
#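 96-well plates; 48 h exposure; 5 concentrations. Endpoints by linear interpolation between flanking doses. Not reached: highest tested concentration assigned. GI50 marks 50% less growth. TGI marks complete inhibition of growth.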
# What was measured:
# Experiment in all cases: NCI-60 cell line screen, 48 h
# [1] = test system: 786-0 renal
# [2] = test system: NCI-H226 lung
# [3] = test system: SK-OV-3 ovarian
# [4] = test system: MOLT-4 leukemia
# [5] = test system: T-47D breast
# [6] = test system: SF-539 CNS
# [7] = test system: NCI-H23 lung
# [8] = test system: SK-MEL-5 melanoma
# [9] = test system: ACHN renal
# [10] = test system: UACC-62 melanoma
# [11] = test system: KM12 colon
# [12] = test system: CAKI-1 renal
# [13] = test system: SNB-19 CNS
# [14] = test system: SF-295 CNS
# [15] = test system: MALME-3M melanoma
# [16] = test system: LOX IMVI melanoma
# [17] = test system: OVCAR-8 ovarian
# [18] = test system: TK-10 renal
# [19] = test system: SW-620 colon
# [20] = test system: MDA-MB-435
# [21] = test system: NCI-H460 lung
# [22] = test system: U251 CNS
# [23] = test system: OVCAR-5 ovarian
# [24] = test system: DU-145 prostate
# [25] = test system: NCI/ADR-RES ovarian
# [26] = test system: MDA-MB-231 breast
# [27] = test system: HT29 colon
# [28] = test system: SK-MEL-28 melanoma
# [29] = test system: M14 melanoma
# [30] = test system: SN12C renal
# [31] = test system: OVCAR-4 ovarian
# [32] = test system: HCT-15 colon
# [33] = test system: NCI-H522 lung
# [34] = test system: IGROV1 ovarian
# [35] = test system: HOP-62 NSCLC
# [36] = test system: OVCAR-3 ovarian
# [37] = test system: UACC-257 melanoma
# [38] = test system: MCF7 breast
# [39] = test system: SF-268 CNS
# [40] = test system: RXF 393 renal
# [41] = test system: HL-60(TB) leukemia
# [42] = test system: A498 renal
# [43] = test system: SK-MEL-2 melanoma
# [44] = test system: HCC-2998 colon
# [45] = test system: HOP-92 NSCLC
# [46] = test system: PC-3 prostate
# [47] = test system: RPMI-8226 leukemia
# [48] = test system: UO-31 renal
# [49] = test system: A549 NSCLC
# [50] = test system: EKVX NSCLC
# [51] = test system: K-562 leukemia
# [52] = test system: HCT-116 colon
# [53] = test system: SNB-75 CNS
# [54] = test system: CCRF-CEM leukemia
# [55] = test system: HS 578T breast
# [56] = test system: COLO 205 colon
compound,measurement,setting,value
CC(NCCC(=O)N(CCC(=O)N(CCC(=O)N(CCC(=O)N(CCC(=O)N(CCC(=O)N(CCC(=O)N(CCC(=O)N(CCC(=O)N(CCC(=O)O)[C@H](C)c1ccccc1)[C@H](C)c1ccccc1)[C@H](C)c1ccccc1)[C@H](C)c1ccccc1)[C@H](C)c1ccccc1)[C@H](C)c1ccccc1)[C@H](C)c1ccccc1)[C@H](C)c1ccccc1)[C@H](C)c1ccccc1)c1ccccc1 (some centres not stated),GI50,[1],3.46 µM
same,TGI,[1],> 75 µM
same,GI50,[2],3.62 µM
same,TGI,[2],20.2 µM
same,GI50,[3],10.6 µM
same,TGI,[3],> 53 µM
same,GI50,[4],1.61 µM
same,TGI,[4],6.7 µM
same,GI50,[5],3.42 µM
same,TGI,[5],> 75 µM
same,GI50,[6],1.49 µM
same,TGI,[6],3.67 µM
same,GI50,[7],3.9 µM
same,TGI,[7],49.1 µM
same,GI50,[8],1.16 µM
same,TGI,[8],2.36 µM
same,GI50,[9],5.05 µM
same,TGI,[9],> 43.9 µM
same,GI50,[10],1.32 µM
same,TGI,[10],2.96 µM
same,GI50,[11],1.76 µM
same,TGI,[11],4.9 µM
same,GI50,[12],3.49 µM
same,TGI,[12],> 45.1 µM
same,GI50,[13],> 19.1 µM
same,TGI,[13],> 75 µM
same,GI50,[14],1.92 µM
same,TGI,[14],5.55 µM
same,GI50,[15],2.04 µM
same,TGI,[15],5.91 µM
same,GI50,[16],1.17 µM
same,TGI,[16],2.37 µM
same,GI50,[17],3.45 µM
same,TGI,[17],> 47.1 µM
same,GI50,[18],3.38 µM
same,TGI,[18],23.2 µM
same,GI50,[19],2.91 µM
same,TGI,[19],> 35 µM
same,GI50,[20],1.71 µM
same,TGI,[20],> 16.1 µM
same,GI50,[21],2.05 µM
same,TGI,[21],6.64 µM
same,GI50,[22],2.82 µM
same,TGI,[22],11.1 µM
same,GI50,[23],> 18.8 µM
same,TGI,[23],> 75 µM
same,GI50,[24],2.34 µM
same,TGI,[24],12.3 µM
same,GI50,[25],> 75 µM
same,TGI,[25],> 75 µM
same,GI50,[26],1.44 µM
same,TGI,[26],4.39 µM
same,GI50,[27],1.6 µM
same,TGI,[27],5.37 µM
same,GI50,[28],1.5 µM
same,TGI,[28],3.63 µM
same,GI50,[29],1.77 µM
same,TGI,[29],5.49 µM
same,GI50,[30],3.66 µM
same,TGI,[30],> 75 µM
same,GI50,[31],2.48 µM
same,TGI,[31],> 68.7 µM
same,GI50,[32],3.22 µM
same,TGI,[32],> 27 µM
same,GI50,[33],2.12 µM
same,TGI,[33],24.5 µM
same,GI50,[34],0.872 µM
same,TGI,[34],15 µM
same,GI50,[35],1.99 µM
same,TGI,[35],6.93 µM
same,GI50,[36],2.04 µM
same,TGI,[36],19.1 µM
same,GI50,[37],1.76 µM
same,TGI,[37],4.15 µM
same,GI50,[38],2.03 µM
same,TGI,[38],> 26.1 µM
same,GI50,[39],2.45 µM
same,TGI,[39],> 38.7 µM
same,GI50,[40],1.47 µM
same,TGI,[40],3.78 µM
same,GI50,[41],2.44 µM
same,TGI,[41],13.9 µM
same,GI50,[42],2.37 µM
same,TGI,[42],11.8 µM
same,GI50,[43],1.9 µM
same,TGI,[43],7.97 µM
same,GI50,[44],1.38 µM
same,TGI,[44],3.11 µM
same,GI50,[45],0.753 µM
same,TGI,[45],2.34 µM
same,GI50,[46],2.66 µM
same,TGI,[46],> 75 µM
same,GI50,[47],1.1 µM
same,TGI,[47],4.08 µM
same,GI50,[48],3.55 µM
same,TGI,[48],> 75 µM
same,GI50,[49],3.56 µM
same,TGI,[49],> 75 µM
same,GI50,[50],3.73 µM
same,TGI,[50],> 75 µM
same,GI50,[51],2.29 µM
same,TGI,[51],> 75 µM
same,GI50,[52],1.95 µM
same,TGI,[52],> 19.9 µM
same,GI50,[53],2.2 µM
same,TGI,[53],41.1 µM
same,GI50,[54],1.89 µM
same,TGI,[54],> 19.5 µM
same,GI50,[55],2.54 µM
same,TGI,[55],> 57.3 µM
same,GI50,[56],1.43 µM
same,TGI,[56],2.83 µM
